Measurements reported in patent US8703936B2, “Compositions and methods for modification of biomolecules” (The Regents of the University of California, priority 2010, dated 2014).
Where “and” joins values, the source holds several entries; their conditions need not be identical. Identical values can stand only once.

Legend:
[1] = test system: CHO cells grown with Ac4ManNAz (azide-labeled glycans); test: Cell-surface labeling of azido glycans on CHO cells and imaging by fluorescence microscopy; assay type: cell-based, Chinese hamster
Experimental: BARAC-Fluor (compound 17) was evaluated as a reagent for direct fluorescence imaging of live Chinese hamster ovary (CHO) cells. CHO cells grown either in the presence or absence of 50 μM Ac4ManNAz were treated with […] BARAC-Fluor (compound 17) for 5 min at rt, washed and then imaged (FIG. 9(a)-(h)).
CHO cells were incubated for 3 days in medium containing 50 μM Ac4ManNAz in an eight-well LabTek II chambered cover glass (Nunc). The medium was poured off, and the cells were washed three times with 200 μl of FACS buffer. The cells then were treated with a solution of BARAC-Fluor, diluted from a 1 mM stock solution in DMSO, in FACS buffer for 5 minutes at 5 μM at room temperature. The cells were also treated with Hoechst 33342 dye to stain the nucleus (1:1,000 dilution in medium of a 1 mg/ml stock solution in DMSO) as soon as possible after the addition of BARAC-Fluor. The cells washed four times with 200 μl of FACS buffer, and imaged at room temperature.
For the no-wash experiment the cells were treated as before, but were incubated in a 250 nM solution of BARAC-Fluor in FACS-buffer. After 25 minutes at room temperature Hoechst 33342 dye (1:1,000 dilution in medium of a 1 mg/ml stock solution in DMSO) was added. After an additional 5 minutes, the cells were imaged without washing away excess reagent. […]

[2] = Reaction rate of BARAC with benzyl azide (1H NMR kinetics); assay type: physicochemical
Experimental: The reactivity of BARAC (compound 15) was studied using benzyl azide as a model substrate. The second-order rate constant in acetonitrile at room temperature (rt) was 0.96 M^−1s^−1 (see FIG. 1), over 12-fold higher than the rate constant for DIFO under identical conditions and over 450 times higher than for an unactivated cyclooctyne. The half-life for the reaction of equimolar amounts of BARAC with benzyl azide at 10 mM was about 45 s at rt.
The reaction of BARAC (compound 15) and benzyl azide was monitored by ^1H NMR for 30 min. at 25° C. BARAC and benzyl azide were separately dissolved in CD3CN and mixed together in a 1:1 ratio at concentrations at 10 mM. A 2:1 ratio was used to determine the exact ratio of reagents based on remaining starting material upon completion of the reaction. The percent conversion was calculated by the disappearance of BARAC and benzyl azide relative to the formation of product as determined by integration. No products other than the two regioisomers of addition were apparent by ^1H NMR. The triazole isomers were produced in a ˜1:1 ratio. The second-order rate constant was determined by plotting 1/[compound 15] versus time. The plot was fit to a linear regression and the slope corresponds to the second-order rate constant. Shown in FIG. 1 are data from four replicate experiments.

[3] = Reaction rate of BARAC with 2-azido-N-isopropylacetamide (1H NMR kinetics); assay type: physicochemical; settings: CD3CN, 25° C., 1:1 at 9.2 mM, three replicates
Experimental: The reaction of BARAC (compound 15) and 2-azido-N-isopropylacetamide was monitored by ^1H NMR for 30 min. at 25° C. BARAC and the azidoacetamide were separately dissolved in CD3CN and mixed together in a 1:1 ratio at concentrations at close to 10 mM (9.2 mM). Hexamethyldisilane (approx 0.3 equiv) was used as an internal standard. The percent conversion was calculated by the ratio between the formation of products and hexamethyldisilane as determined by integration. No products other than the regioisomers of addition were apparent by ^1H NMR. The ratio of triazole isomers is complicated by rotamers. The second-order rate constant was determined by plotting 1/[compound 15] versus time. The plot was fit to a linear regression and the slope corresponds to the second-order rate constant. Shown are data from three replicate experiments.

[4] = Potential background reaction of BARAC with glutathione; assay type: physicochemical; settings: 5 mM glutathione in CD3CN:D2O (1:2), 2 mM BARAC, rt
[5] = Stability to chromatography and storage; assay type: physicochemical; settings: traditional chromatography; storage at room temperature
Excerpt: Oxidation of indole (compound 10) with excess m-CPBA opened the central rings to give the cyclic keto-amide (compound 11), which was unstable to silica-gel purification. These reaction conditions left the terminal alkene untouched. Treatment of the potassium enolate of ketone (compound 11) with trifluoromethanesulfonyl anhydride gave compound 12. Selective reaction of the terminal alkene with a nitrile oxide generated in situ from chlorooxime (compound 13) installed a linker for conjugation to a probe molecule as reported by Huisgen, R. and Gutsmiedl, et al. Huisgen, R. Angew. Chem. Int. Ed., (1963), 2, 565-598; and Gutsmiedl, K.; Wirges, C. T.; Ehmke, V.; Carell, T. Org. Lett., 2009, 11, 2405-2408. Reaction of compound 14 with CsF introduced the strained alkyne in under 30 min at rt. The synthesis of BARAC (compound 15) from compound 9 was accomplished in 6 steps in 18% overall yield (see FIG. 11).

[6] = test system: Jurkat cells treated with Ac4ManNAz (cell-surface azido sialic acids, SiaNAz)
Experimental: Cultured Jurkat cells were treated with peracetylated N-azidoacetyl mannosamine (Ac4ManNAz) to introduce the corresponding azido sialic acids (SiaNAz) into their cell-surface glycoproteins and lipids.
Jurkat cells were incubated in untreated media or media containing 25 μM Ac4ManNAz. After 3 d, the cells were twice concentrated (500×g, 3 min, 4° C.) and resuspended in 10 mL FACS buffer (PBS containing 1% FCS, 2×10 mL) and cells (approx 350,000 per a well) were placed in a 96 well V-bottom plate. The cells were concentrated by centrifugation (2500×g, 3 min, 4° C.), resuspended in 200 μL cold FACS buffer, and again concentrated by centrifugation (2500×g, 3 min, 4° C.). […] After 1 h, the cells were thrice concentrated by centrifugation (2500×g, 3 min, 4° C.) and resuspended in 200 μL cold FACS buffer. Following and additional concentration by centrifugation (2500×g, 3 min, 4° C.), cells were resuspended in FACS buffer (100 μL) containing FITC-avidin (1:200 dilution of 1 mg/mL stock, Sigma-Aldrich) and incubated in the dark at 4° C. for 15 min. Following the incubation, cells were concentrated by centrifugation, resuspended in 200 μL cold FACS buffer, concentrated by centrifugation, and another FITC-avidin incubation was performed. After the second FITC-avidin labeling, the cells were thrice concentrated by centrifugation (2500×g, 3 min, 4° C.) and resuspended in 200 μL cold FACS buffer. The cells were then diluted to 400 μL for flow cytometry analysis. Flow cytometry was performed on a BD Biosciences FACSCalibur flow cytometer equipped with a 488-nm argon laser. All flow cytometry experiments were performed with three replicate samples.
Jurkat cells were incubated in the presence or absence of 25 μM Ac4ManNAz for 3 d. […] MFI=mean fluorescence intensity and has arbitrary units (Au).
Jurkat cells were incubated with (+Az) or without (−Az) 25 M Ac4ManNAz for 3 days. The cells were labeled with 1 μM cyclooctyne-biotin for various times and then treated with FITC-avidin. […] The degree of labeling was quantified by flow cytometry. The level of fluorescence was reported in mean fluorescence intensity (MFI, arbitrary unit). Error bars represent the standard deviation of three replicate experiments. […] MFI reported as difference between signal of cells +Az and signal of cells −Az.

[7] = test system: Jurkat cells; settings: 1 μM, 1 h at 25° C., 7-AAD (FIG. 5)
Experimental: Jurkat cells were incubated in the presence (+Az, black bar) or absence (−Az, gray bar) of Ac4ManNAz for 3 d. […] Prior to flow cytometry analysis, half the cells were treated with 7-amino-actinomycin D (7-AAD) following the procedure reported at http://www.bdbiosciences.com/external_files/pm/doc/tds/cell_bio/live/web_enabled/68981E—559925.pdf. The samples were diluted and analyzed by flow cytometry. The error bars represent standard deviations from three replicate samples.
In all plots, the x-axis indicates the degree of cell-surface glycan labeling as measured by FITC fluorescence (FL1). For the plots shown if FIG. 6(a)-(d), the y-axis represents the degree of 7-AAD (FL3, cell viability marker).

O=C(OCc1ccc(C2=NOC(CN3C(=O)c4ccccc4C#Cc4ccccc43)C2)cc1)N1CCN(C(=O)c2ccccc2-c2c3ccc(=O)cc-3oc3cc(O)ccc23)CC1 (stereo not drawn) [BARAC-Fluor]
labeling in no-wash experiment ([1]; 250 nM, 30 min at rt, imaged without washing (FIG. 9(i)-(p))): significant labeling above the background | cell surface fluorescence of azide-labeled cells ([1]; 5 μM, 5 min at rt, washed, 50 μM Ac4ManNAz (FIG. 9(a)-(h))): significant cell surface fluorescence

O=C1c2ccccc2C#Cc2ccccc2N1CC1CC(c2ccc(CO)cc2)=NO1 (stereo not drawn) [BARAC]
second-order rate constant ([2]; benzyl azide, acetonitrile (CD3CN), rt (25° C.), 1:1 at 10 mM): 0.96 M⁻¹ s⁻¹ and 0.96 ± 0.04 M⁻¹ s⁻¹ | times higher rate constant than an unactivated cyclooctyne ([2]; versus unactivated cyclooctyne): over 450 times | second-order rate constant [3]: 0.64 ± 0.06 M⁻¹ s⁻¹ | half-life at 2 mM [4]: 24 h | stability [5]: stable to traditional chromatography and storage at room temperature

BARAC-biotin
cell labeling at low concentration ([6]; 50 nM, 1 h, Jurkat (FIG. 3)): significant cell labeling | labeling compared with DIFO-biotin and DIBO-biotin ([6]; 1 μM cyclooctyne-biotin, after 1 h (FIG. 8(b))): more labeling than DIFO-biotin and DIBO-biotin | fold higher signal than either DIFO-biotin or DIBO-biotin ([6]; 1 μM, after 1 min (FIG. 8(c))): 10 fold | azide-specific cell labeling ([6]; Jurkat ±25 μM Ac4ManNAz 3 d, reagent 1 h, versus FITC-avidin alone (FIG. 3)): robust azide-specific labeling with no significant background labeling | cytotoxicity compared to cells treated with no cyclooctyne reagent [7]: not accompanied by any cytotoxicity
